“Also recorded” adds a separate entry of the source. Like-named read-outs stand apart in the source and are kept apart here. Marks after values point to notes of the source that are not given here.
Assays:
[1] = tested on: Colo 320/MDR-LRP human colonic adenocarcinoma cell line; experiment: Cytotoxicity (MTT) on resistant Colo 320 cells; assay type: cell-based; details: for IC50: Homo sapiens, read-out: Colo 320 (IC50 µM) Mean; for SI MRC-5/Colo 320: ratio IC50 non-tumour cells / IC50 cancer cells
Text: Three cell lines have been used in this study: the doxorubicin-sensitive Colo 205 (CCL-222, ATCC, Manassas, VA, USA) human colonic adenocarcinoma cell line; the multidrug resistant Colo 320/MDR-LRP expressing P-gp (MDR1)-LRP (CCL-220.1, ATCC) human colonic adenocarcinoma cell line; and the MRC-5 human embryonal lung fibroblast cell line (CCL-171, ATCC). The colon adenocarcinoma cell lines were purchased from LGC Promochem (Teddington, UK), and the MRC-5 cell line was purchased from Sigma-Aldrich (Merck KGaA, Darmstadt, Germany). Their culture conditions are as follows: Colo 205 (CCL-222, ATCC) and Colo 320/MDR-LRP expressing P-gp (MDR1)-LRP (CCL-220.1, ATCC) human colon adenocarcinoma cell lines were cultured in RPMI 1640 medium, supplemented with 10% FBS, 2 mM L-glutamine, 1 mM Na-pyruvate, and […]. The cell lines were incubated at 37 °C, 5% CO2, and 95% air atmosphere. The semi-adherent human colon cancer cells were detached with a Trypsin-Versene (EDTA) solution for 5 min at 37 °C. MRC-5 human embryonal lung fibroblast cells were cultured in EMEM containing 4.5 g/L of glucose and supplemented with a non-essential amino acid mixture, a selection of vitamins, and 10% FBS. The cell lines were incubated at 37 °C, 5% CO2, and 95% air atmosphere.
The effects of increasing concentrations of the compounds on cell growth were tested in 96-well flat-bottomed microtiter plates. Moreover, 10^4 of human colonic adenocarcinoma cells in 100 μL of the medium (RPMI-1640) were added to each well, except for the medium control wells. The adherent human embryonic lung fibroblast cell line was seeded in the EMEM medium for 4 h before the assay. The two-fold serial dilutions of the compounds were made in a separate plate (0.19–100 μM), and then transferred to the plates containing the adherent corresponding cell line. Culture plates were incubated at 37 °C for 24 h. At the end of the incubation period, 20 μL of MTT (thiazolyl blue tetrazolium bromide) solution (from a 5 mg/mL stock solution) were added to each well. After incubation at 37 °C for 4 h, 100 μL of sodium dodecyl sulfate (SDS) solution (10% SDS in 0.01 M HCl) was added to each well, and the plates were further incubated at 37 °C overnight. Cell growth was determined by measuring the optical density (OD) at 540 nm (ref. 630 nm) with a Multiscan EX ELISA reader (Thermo Labsystems, Cheshire, WA, USA). Inhibition of cell growth was expressed as IC50 values, defined as the inhibitory dose that reduces the growth of the cells exposed to the tested compounds by 50%. IC50 values and the SD of triplicate experiments were calculated by using GraphPad Prism software version 5.00 for Windows, with a non-linear regression curve fit (GraphPad Software, San Diego, CA, USA; www.graphpad.com, accessed on 12 July 2021). Doxorubicin (from a 2 mg/mL stock solution, Teva Pharmaceuticals) was used as a positive control.
(§1) The selectivity indexes (SI) were calculated as the ratio of the IC50 value in the non-tumour cells and the IC50 in the cancer cell lines. The compound’s activity towards cancer cells is considered as strongly selective if the selectivity index (SI) value is higher than 6, moderately selective if 3 < SI < 6, slightly selective if 1 < SI < 3, and non-selective if SI is lower than 1 [16].

[2] = tested on: HeLa (cervical adenocarcinoma); experiment: Cytotoxicity on HeLa cells; assay type: cell-based; details: Homo sapiens
Procedure: (§2) The activity of selenoesters was tested on several cancer cell lines, including HepG2 (hepatocellular carcinoma, CCL-23TM, ATCC); HeLa (cervical adenocarcinoma, CCL-2TM, ATCC); B16 (skin melanoma, CCL-6322TM, ATCC); and a non-cancerous cell line, HDF (human dermal fibroblasts, Sigma-Aldrich). HepG2, HeLa, B16, and HDF cell lines were cultivated in EMEM medium supplemented with 10% FBS, 2 mM L-glutamine, and 1% penicillin-streptomycin mixture. The HaCaT cell line was cultivated in DMEM medium supplemented with 10% FBS and 1% penicillin-streptomycin mixture. All of the cells were cultivated in a CO2 incubator (5% CO2, 37 °C). Twice per week, the cell lines were passaged according to a standardized protocol with a trypsin-EDTA solution.
as §1

[3] = tested on: B16 (skin melanoma); experiment: Cytotoxicity on B16 cells; assay type: cell-based, murine; details: Mus musculus
Procedure: as §2, §1

[4] = tested on: resistant Colo 320 colon adenocarcinoma cells expressing the ABCB1 transporter; experiment: Checkerboard combination assay with doxorubicin; assay type: cell-based, human
Procedure: A checkerboard microplate method was applied to study the effect of drug interactions between the selenocompounds and the chemotherapeutic drug doxorubicin on resistant Colo 320 colon adenocarcinoma cells expressing the ABCB1 transporter. Results were expressed in terms of the combination index (CI) values at 50% growth inhibition (ED50), which were determined by using CompuSyn software to plot 4 or 5 data points for each ratio.
To perform the experiment, the dilutions of doxorubicin were made in a horizontal direction in 100 µL, and the dilutions of the Se-compounds were made vertically in the microtiter plate in a volume of 50 µL. The cells were re-suspended in the culture medium and distributed into each well in 50 µL portions containing 6000 cells. The plates were incubated for 72 h at 37 °C in a CO2 incubator. The cell growth rate was determined after MTT staining. At the end of the incubation period, 20 μL of MTT solution was added to each well. After incubation at 37 °C for 4 h, 100 μL of SDS was added to each well and the plates were further incubated at 37 °C overnight. The optical density (OD) was measured at 540/630 nm with the Multiscan EX ELISA reader.

[5] = in at least one of the ratios tested
[6] = ratio 0.6:1, starting conc. 5 µM
[7] = ratio 1.2:1, starting conc. 5 µM
[8] = ratio 2.4:1, starting conc. 5 µM
[9] = ratio 4.8:1, starting conc. 5 µM
[10] = ratio 9.6:1, starting conc. 5 µM
[11] = ratio 0.7:1, starting conc. 6 µM
[12] = ratio 1.4:1, starting conc. 6 µM
[13] = ratio 2.8:1, starting conc. 6 µM
[14] = ratio 5.6:1, starting conc. 6 µM
[15] = ratio 11.2:1, starting conc. 6 µM
[16] = ratio 22.4:1, starting conc. 6 µM

Row | Structure (SMILES) | IC50 ([1]; COLO 320, 24 h, MTT) | SI MRC-5/Colo 320 [1] | IC50 [2] | IC50 [3] | Interaction with doxorubicin [4, 5] | Type of Interaction [4, 11] | Type of Interaction [4, 12] | Type of Interaction [4, 13] | Type of Interaction [4, 14] | Type of Interaction [4, 15] | Type of Interaction [4, 16] | IC50 ([1]; COLO 320, 24 h) | further results
1 | CC(=O)C[Se]C(=O)c1cccs1 [K1, Se-(2-Oxopropyl) Thiophene-2-carboselenoate] | 1.47 µM | 1.52 | 2.5 µM | 1.4 µM | synergistic manner; also recorded: interact synergistically | – | – | – | – | – | – | – | Type of Interaction [4, 6]: Antagonism; Type of Interaction [4, 7]: Additive effect; Type of Interaction [4, 8]: Additive effect; Type of Interaction [4, 9]: Slight synergism; Type of Interaction [4, 10]: Slight antagonism
2 | CC(=O)C[Se]C(=O)c1ccccc1F [K2, Se-(2-Oxopropyl) 2-Fluorobenzoselenoate] | 2.38 µM | 1.06 | 2.5 µM | 1.2 µM | – | Antagonism | Antagonism | Slight antagonism | Additive effect | Antagonism | Antagonism | – | –
3 | CC(=O)C[Se]C(=O)c1ccc(Br)cc1 [K3, Se-(2-Oxopropyl) 4-Bromobenzoselenoate] | – | 1.33 | 2.1 µM | 1.7 µM | synergistic manner; also recorded: interact synergistically | Moderate antagonism | Synergism | Moderate synergism | Antagonism | Moderate antagonism | Antagonism | 2.15 µM | –
4 | CC(=O)C[Se]C(=O)c1ccccc1C(F)(F)F [K4, Se-(2-Oxopropyl) 2-(Trifluoromethyl)benzoselenoate] | – | 2.45 | 1.9 µM | 2 µM | synergistic manner; also recorded: interact synergistically | – | – | – | – | – | – | 1.48 µM | Type of Interaction [4, 6]: Synergism; Type of Interaction [4, 7]: Additive effect; Type of Interaction [4, 8]: Additive effect; Type of Interaction [4, 9]: Moderate synergism; Type of Interaction [4, 10]: Slight synergism; Type of Interaction ([4]; ratio 19.2:1, starting conc. 5 µM): Additive effect
5 | CC(=O)C[Se]C(=O)c1cccc(C(F)(F)F)c1 [K5, Se-(2-Oxopropyl) 3-(Trifluoromethyl)benzoselenoate] | 2.17 µM | 1.43 | 2.5 µM | 1.1 µM | synergistic manner; also recorded: interact synergistically | Synergism | Moderate synergism | Synergism | Synergism | Synergism | Synergism | – | Interaction with doxorubicin ([4]; in all ratios tested): synergistic interaction
6 | CC(=O)C[Se]C(=O)c1ccc(F)c(Cl)c1 [K6, Se-(2-Oxopropyl) 3-Chloro-4-fluorobenzoselenoate] | 2.1 µM | 1.72 | 2.3 µM | 1.3 µM | synergistic manner; also recorded: interact synergistically | Synergism | Moderate synergism | Synergism | Synergism | Synergism | Synergism | – | Interaction with doxorubicin ([4]; in all ratios tested): synergistic interaction
7 | CC(=O)C[Se]C(=O)c1ccc(C(C)(C)C)cc1 [K7, Se-(2-Oxopropyl) 4-(Tert-butyl)benzoselenoate] | – | 1.45 | 2.7 µM | 1.4 µM | – | Moderate antagonism | Antagonism | Moderate antagonism | Moderate antagonism | Antagonism | Antagonism | 2.57 µM | –
8 | CC(=O)C[Se]C(=O)c1cc(F)c(F)cc1F [K8, Se-(2-Oxopropyl) 2,4,5-Trifluorobenzoselenoate] | 2.37 µM | 1.05 | 2 µM | 1.4 µM | synergistic manner; also recorded: interact synergistically | Strong synergism | Antagonism | Antagonism | Antagonism | Antagonism | – | – | –
9 | N#CC[Se]C(=O)c1cccc(F)c1 [N2, Se-(Cyanomethyl) 3-Fluorobenzoselenoate] | 7.01 µM | >6 * | 5.2 µM | 2.6 µM | synergistic manner; also recorded: synergistic effect | – | – | – | – | – | – | – | Type of Interaction ([4]; ratio 1.7:1, starting conc. 15 µM): Synergism; Type of Interaction ([4]; ratio 3.4:1, starting conc. 15 µM): Antagonism; Type of Interaction ([4]; ratio 6.8:1, starting conc. 15 µM): Synergism; Type of Interaction ([4]; ratio 13.6:1, starting conc. 15 µM): Moderate antagonism; Type of Interaction ([4]; ratio 27.2:1, starting conc. 15 µM): Antagonism; Type of Interaction ([4]; ratio 54.4:1, starting conc. 15 µM): Antagonism
10 | N#CC[Se]C(=O)c1ccc(Br)cc1 [N3, Se-(Cyanomethyl) 4-Bromobenzoselenoate] | 4.37 µM | >6 * | 2.4 µM | 2.8 µM | synergistic manner; also recorded: synergistic effect | – | – | – | – | – | – | – | Type of Interaction ([4]; ratio 1.2:1, starting conc. 10 µM): Antagonism; Type of Interaction ([4]; ratio 2.4:1, starting conc. 10 µM): Strong antagonism; Type of Interaction ([4]; ratio 4.8:1, starting conc. 10 µM): Moderate synergism; Type of Interaction ([4]; ratio 9.6:1, starting conc. 10 µM): Additive effect; Type of Interaction ([4]; ratio 19.2:1, starting conc. 10 µM): Slight antagonism; Type of Interaction ([4]; ratio 38.4:1, starting conc. 10 µM): Moderate antagonism
